Patent US20250361239A1, “PROTEIN DEGRADERS AND USES THEREOF” (ZHUHAI YUFAN BIOTECHNOLOGIES CO., LTD., priority 2022, published 2025)

Legend:
Format in all cases: cell-based
HL60 cells = experiment: HL60 cell killing experiment (CellTiter-Glo cell viability); settings: CTG luminescence
Method: (§1) HL60 cell lines were purchased from ATCC (Cat #ATCC® CCL-240™), IMDM media were purchased from ATCC (Cat #ATCC® 30-2005™), FBS was purchased from Gibco (Cat #10091148), celltiter-glo luminescent cell viability assay was purchased from promega (Cat #G7572), and 96-well plates were purchased from corning (Cat #3610).
(§2) The effect of compounds on the growth of HL60 cells was determined by measuring cell viability. Firstly, cells in the logarithmic growth phase were collected and centrifuged, and the culture supernatant was discarded. The centrifuged cells were resuspended in a fresh complete medium, and the cell density was adjusted to 5×10^4 cells/mL. The resuspended cells were inoculated into two opaque 96-well cell culture plates at 100 μL of cell suspension per well, and the cell culture plates were incubated in a cell incubator at 37° C. for 4 h. After 4 h, dilutions (20 μL) of compounds with different concentrations were added. After one of the cell plates was cooled to room temperature, 60 μL of CTG reagent was added, and the luminescence values were read on the instrument as G0. The other one was incubated in a cell incubator for 48 h. After 48 h, 60 μL of CTG reagent was added, and the luminescence values were read on the instrument as G3.
(§3) According to the corresponding proliferation rate and concentration of each gradient concentration well, a gradient curve of cell proliferation was fitted using XLFit software, and the GI50 values of compounds were calculated.

Hep3B cells = experiment: Hep3B cell killing experiment (CellTiter-Glo cell viability); settings: Homo sapiens, 48 h incubation, CTG luminescence
Method: as §1, with “Hep3B” for “HL60”, “HB-8064™), EMEM” for “CCL-240™), IMDM”, “30-2003™),” for “30-2005™),”, “coming” for “corning”
The effect of compounds on the growth of Hep3B cells was determined by measuring cell viability and growth rate. Firstly, the cells were digested with pancreatin, and the digestion was then terminated with medium. The cells were centrifuged, and the supernatant was discarded. The centrifuged cells were resuspended in a fresh complete medium, and the cell density was adjusted to 5×10^4 cells/mL. The resuspended cells were inoculated into two identical opaque 96-well cell culture plates at 100 μL of cell suspension per well, and the cell culture plates were incubated in a cell incubator at 37° C. overnight. The next day, dilutions (20 μL) of compounds with different concentrations were added. After one of the cell plates was cooled to room temperature, 60 μL of CTG reagent was added. The luminescence values were read on the instrument as G0. The other one was incubated in a cell incubator for 48 h. After 48 h, 60 μL of CTG reagent was added, and the luminescence values were read on the instrument as G3.
as §3

GSPT1 = molecular target: T1, GSPT1 (Homo sapiens, UniProt P15170+Q96SW2); experiment: Degradation of GSPT1 by the compounds (HiBiT signal in GSPT1/HEK293 hibit cells); settings: 6 h incubation, Nano Glo HiBiT Lytic Detection
T1 construct: host or cells: HEK293
Method: GSPT1/HEK293 hibit cell lines were constructed by Shanghai BioDuro Co., Ltd., HEK293 cell lines were purchased from ATCC (Cat #ATCC® CRL-1573™), DMEM media were purchased from ATCC (Cat #ATCC® 30-2002™), FBS was purchased from Gibco (Cat #10091148), Nano Glo HiBiT Lytic Detection System was purchased from Promega (Cat #N3040), and 96-well plates were purchased from coming (Cat #3610).
The degradation of GSPT1 by the compounds was determined by measuring the intensity of hibit signals in cells. Firstly, the cells were digested with pancreatin, and the digestion was then terminated with medium. The cells were centrifuged, and the supernatant was discarded. The centrifuged cells were resuspended in a fresh complete medium, and the cell density was adjusted to 2.5×10^4 cells/mL. The resuspended cells were inoculated into an opaque 96-well cell culture plate at 100 μL of cell suspension per well, and the cell culture plate was incubated in a cell incubator at 37° C. overnight. The next day, dilutions (20 μL) of compounds with different concentrations were added, and the plate was incubated in a cell incubator for 6 h. After 6 h, 60 μL of Nano Glo HiBiT Lytic Detection System reagent was added and the luminescence values were read on the instrument.
According to the corresponding degradation rate and concentration of each gradient concentration well, a gradient curve of degradation rate was fitted using XLFit software, and the DC50 values of compounds were calculated.

NCI-H929 cells = experiment: NCI-H929 cell killing experiment (CellTiter-Glo cell viability); settings: Homo sapiens, 48 h incubation, CTG luminescence
Method: as §1, with “NCI-H929” for “HL60”, “CRL-9068™), RPMI1640” for “CCL-240™), IMDM”, “30-2001™),” for “30-2005™),”, “coming” for “corning”
as §2, with “2. Method The effect” for “The effect”, “growth of NCI-H929 cells was” for “growth of HL60 cells was”, “measuring cell viability and growth rate. Firstly, cells” for “measuring cell viability. Firstly, cells”, “into two identical opaque 96-well” for “into two opaque 96-well”
as §3

Toledo cells = experiment: Toledo cell killing experiment (CellTiter-Glo cell viability); settings: Homo sapiens, 48 h incubation, CTG luminescence
Method: as §1, with “Toledo” for “HL60”, “CRL-2631™), RPMI1640” for “CCL-240™), IMDM”, “30-2001™),” for “30-2005™),”, “coming” for “corning”
as §2, with “Toledo” for “HL60”, “viability and growth rate.” for “viability.”, “two identical” for “two”
as §3

Jurkat cells = experiment: Jurkat cell killing experiment (CellTiter-Glo cell viability); settings: Homo sapiens, 48 h incubation, CTG luminescence
Method: as §1, with “Jurkat” for “HL60”, “TIB-152™), RPMI1640” for “CCL-240™), IMDM”, “30-2001™),” for “30-2005™),”, “coming” for “corning”
as §2, with “Jurkat” for “HL60”, “viability and growth rate.” for “viability.”, “two identical” for “two”
as §3

SU-DHL-2 cells = experiment: SU-DHL-2 cell killing experiment (CellTiter-Glo cell viability); settings: Homo sapiens, 48 h incubation, CTG luminescence
Method: as §1, with “SU-DHL-2” for “HL60”, “CRL-2956™), RPMI1640” for “CCL-240™), IMDM”, “30-2001™),” for “30-2005™),”, “coming” for “corning”
as §2, with “SU-DHL-2” for “HL60”, “viability and growth rate.” for “viability.”, “two identical” for “two”
as §3

THP-1 cells = experiment: THP-1 cell killing experiment (CellTiter-Glo cell viability); settings: Homo sapiens, 48 h incubation, CTG luminescence
Method: as §1, with “THP-1” for “HL60”, “TIB-202™), RPMI1640” for “CCL-240™), IMDM”, “30-2001™),” for “30-2005™),”, “coming” for “corning”
as §2, with “THP-1” for “HL60”, “viability and growth rate.” for “viability.”, “two identical” for “two”
as §3

[1] = Homo sapiens, HL-60, 48 h incubation

T1 sequence (P15170 whole entry): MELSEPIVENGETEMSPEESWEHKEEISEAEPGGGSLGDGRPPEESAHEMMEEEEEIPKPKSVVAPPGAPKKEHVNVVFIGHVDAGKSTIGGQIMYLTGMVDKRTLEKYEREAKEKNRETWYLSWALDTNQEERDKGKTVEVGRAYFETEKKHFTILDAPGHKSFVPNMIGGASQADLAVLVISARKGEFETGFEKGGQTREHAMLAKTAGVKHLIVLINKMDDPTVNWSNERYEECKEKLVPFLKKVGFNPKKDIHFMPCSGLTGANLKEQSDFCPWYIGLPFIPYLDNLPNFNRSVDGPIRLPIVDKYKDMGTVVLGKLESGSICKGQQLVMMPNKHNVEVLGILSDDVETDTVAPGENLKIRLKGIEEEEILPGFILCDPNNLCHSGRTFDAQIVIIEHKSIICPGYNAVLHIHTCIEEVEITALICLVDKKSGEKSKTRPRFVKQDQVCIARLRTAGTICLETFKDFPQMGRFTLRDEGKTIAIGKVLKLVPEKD
T1 sequence (Q96SW2 whole entry): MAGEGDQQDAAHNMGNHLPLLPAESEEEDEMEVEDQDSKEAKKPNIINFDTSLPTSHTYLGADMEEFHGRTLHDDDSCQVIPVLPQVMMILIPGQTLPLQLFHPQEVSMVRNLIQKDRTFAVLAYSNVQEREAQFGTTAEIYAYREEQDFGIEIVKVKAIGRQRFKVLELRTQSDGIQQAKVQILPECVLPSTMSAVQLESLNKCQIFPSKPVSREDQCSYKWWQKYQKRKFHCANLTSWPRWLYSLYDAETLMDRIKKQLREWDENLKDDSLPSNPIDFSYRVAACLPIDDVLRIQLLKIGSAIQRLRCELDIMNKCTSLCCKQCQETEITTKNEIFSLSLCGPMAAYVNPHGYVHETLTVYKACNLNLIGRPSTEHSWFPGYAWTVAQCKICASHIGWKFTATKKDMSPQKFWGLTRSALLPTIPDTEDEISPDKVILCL
T1 sequence (Q16531 whole entry partner): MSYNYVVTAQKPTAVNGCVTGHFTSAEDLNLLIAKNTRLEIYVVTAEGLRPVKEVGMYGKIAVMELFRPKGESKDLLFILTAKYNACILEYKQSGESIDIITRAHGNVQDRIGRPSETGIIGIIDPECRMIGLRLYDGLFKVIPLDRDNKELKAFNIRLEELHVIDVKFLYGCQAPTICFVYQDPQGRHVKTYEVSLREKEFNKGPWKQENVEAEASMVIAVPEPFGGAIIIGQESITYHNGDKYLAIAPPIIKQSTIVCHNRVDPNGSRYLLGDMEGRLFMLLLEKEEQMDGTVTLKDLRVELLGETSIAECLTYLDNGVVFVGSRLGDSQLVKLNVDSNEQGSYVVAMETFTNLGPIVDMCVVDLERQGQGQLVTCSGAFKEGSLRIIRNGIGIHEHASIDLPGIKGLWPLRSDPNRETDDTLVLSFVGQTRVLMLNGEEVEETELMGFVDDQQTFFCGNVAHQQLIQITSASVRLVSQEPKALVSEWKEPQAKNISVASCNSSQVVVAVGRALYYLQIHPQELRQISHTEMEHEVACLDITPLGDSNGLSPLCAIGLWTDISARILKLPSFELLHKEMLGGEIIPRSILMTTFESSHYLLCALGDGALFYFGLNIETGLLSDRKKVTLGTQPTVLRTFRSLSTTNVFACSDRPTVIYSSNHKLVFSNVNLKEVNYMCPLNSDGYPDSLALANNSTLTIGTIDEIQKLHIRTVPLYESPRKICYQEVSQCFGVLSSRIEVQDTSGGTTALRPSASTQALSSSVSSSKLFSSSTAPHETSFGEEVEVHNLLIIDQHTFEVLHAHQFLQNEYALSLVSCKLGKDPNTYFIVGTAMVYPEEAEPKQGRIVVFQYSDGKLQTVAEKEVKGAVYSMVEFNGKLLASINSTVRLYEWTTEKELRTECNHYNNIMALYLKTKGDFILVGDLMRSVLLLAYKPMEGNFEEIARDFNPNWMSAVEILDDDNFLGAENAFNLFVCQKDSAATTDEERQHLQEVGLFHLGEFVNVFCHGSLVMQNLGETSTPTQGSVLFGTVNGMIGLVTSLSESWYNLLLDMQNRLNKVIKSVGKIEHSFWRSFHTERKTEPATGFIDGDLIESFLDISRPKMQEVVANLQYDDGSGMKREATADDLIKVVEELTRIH

DC50 (GSPT1) | Structure (SMILES) | GI50 (HL60 cells; [1]) | GI50 (Hep3B cells) | GI50 (NCI-H929 cells) | GI50 (Toledo cells) | GI50 (Jurkat cells) | GI50 (HL60 cells; 48 h incubation) | GI50 (SU-DHL-2 cells) | GI50 (THP-1 cells)
< 100 nM | Cn1c(C2CCC(NC(=O)C3CC(CNc4cccc5c4C(=O)N(C4CCC(=O)NC4=O)C5=O)C3)CC2)nc2ccncc21 (stereo not drawn) [Example 10] | < 100 nM | 6.91 nM | 19.6 nM |  |  |  |  | 
< 100 nM | Cn1c2cnccc2nc1[C@H]1CC[C@H](NC(=O)c2cc(CNc3cccc4c3C(=O)N(C3CCC(=O)NC3=O)C4=O)ccn2)CC1 (stereo partly drawn) [Example 26] | < 100 nM | 2.7 nM |  | 11.7 nM | 2.24 nM |  |  | 
< 100 nM | Cn1c(C2CCC(NC(=O)c3cc(CNc4cccc5c4C(=O)N(C4CCC(=O)NC4=O)C5=O)ccn3)CC2)nc2ccncc21 (stereo not drawn) [Example 39] |  | 0.99 nM |  | 3.58 nM | 1.73 nM | < 100 nM |  | 
< 100 nM | O=C1CCC(N2C(=O)c3cccc(NCc4cccc(C(=O)N[C@H]5CC[C@H](c6nc7cccnc7s6)CC5)c4)c3C2=O)C(=O)N1 (stereo partly drawn) [Example 61] | < 100 nM | 1.48 nM | 1.08 nM | 5.31 nM |  |  |  | 
< 100 nM | Cn1c2cnccc2nc1[C@H]1CC[C@H](N2Cc3ccc(CNc4cccc5c4C(=O)N(C4CCC(=O)NC4=O)C5=O)cc3C2=O)CC1 (stereo partly drawn) [Example 70] | < 100 nM | 5.21 nM | 1.63 nM |  |  |  | 22.3 nM | 
< 100 nM | O=C1CCC(N2C(=O)c3cccc(NCc4cccc(NC(=O)[C@H]5CC[C@H](c6nc7cccnc7s6)CC5)c4F)c3C2=O)C(=O)N1 (stereo partly drawn) [Example 81] | < 100 nM |  | 0.33 nM | 4.03 nM | 11.4 nM |  | 5.62 nM | 
< 100 nM | CC(C)n1c(C2CCC(NC(=O)c3cccc(CNc4cccc5c4C(=O)N(C4CCC(=O)NC4=O)C5=O)c3)CC2)nc2cccnc21 (stereo not drawn) [Example 83] | < 100 nM | 7.88 nM | 5.49 nM |  |  |  |  | 67.6 nM
< 100 nM | COc1ccc(CNc2cccc3c2C(=O)N(C2CCC(=O)NC2=O)C3=O)cc1C(=O)N[C@H]1CC[C@H](c2nc3cccnc3s2)CC1 (stereo partly drawn) [Example 94] | < 100 nM |  |  |  | 2.51 nM |  |  | 
 | COc1ccc2c(c1)nc([C@H]1CC[C@H](N(C)C(=O)c3cc(CNc4cccc5c4C(=O)N(C4CCC(=O)NC4=O)C5=O)ccn3)CC1)n2C (stereo partly drawn) [Example 105] |  |  |  |  | 1.3 nM |  |  | 
< 100 nM | Cn1c(C2CCC(NC(=O)CCCCNc3cccc4c3C(=O)N(C3CCC(=O)NC3=O)C4=O)CC2)nc2c3c(C4CCOCC4)c[nH]c3ncc21 (stereo not drawn) [Example 113] | < 100 nM |  |  | 1.53 nM |  |  |  | 
